Some test systems named below: SW-620 colon; HOP-92 NSCLC; SF-268 CNS; COLO 205 colon; A549 NSCLC; HCT-116 colon; NCI-H522 lung; SK-MEL-2 melanoma; MOLT-4 leukemia; OVCAR-3 ovarian.
Common to all, as to assay: NCI-60 cell line screen, 48 h

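Following 48 hours of exposure in 96-well plates, responses at five concentrations were used to interpolate endpoints linearly. At the GI50, growth is halved. TGI marks complete inhibition of growth.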 Some results are limits rather than exact numbers.

As to `N#CC1c2ccccc2-c2ccccc2N1C(=O)c1ccccc1` (stereo not given), the GI50 with SW-620 colon was 0.585 µM; in the assay on HOP-92 NSCLC, 2.42 µM; in the assay on SF-268 CNS, 3.03 µM; with COLO 205 colon, 1.56 µM; in the assay with A549 NSCLC, 2.97 µM; with HCT-116 colon it was 1.74 µM. Further, the GI50 in the assay with NCI-H522 lung is 0.223 µM; with SK-MEL-2 melanoma, 2.78 µM; in the assay on MOLT-4 leukemia it was 1.73 µM; with OVCAR-3 ovarian, 0.748 µM. Besides, the TGI with SW-620 colon is above 100 µM; in the assay on HOP-92 NSCLC, 19.9 µM; with SF-268 CNS, 23.4 µM; in the assay on COLO 205 colon, 3.67 µM; with A549 NSCLC it was above 38.8 µM; with HCT-116 colon it was 9.22 µM. The TGI in the assay with NCI-H522 lung was 1.48 µM; in the assay on SK-MEL-2 melanoma, above 29.6 µM; in the assay with MOLT-4 leukemia it was above 100 µM; in the assay with OVCAR-3 ovarian it was 2.47 µM.

With `CC(CC(=O)O)(CC(=O)O)C(=O)O`, the TGI with SW-620 colon, with HOP-92 NSCLC, with SF-268 CNS, in the assay on COLO 205 colon, in the assay with A549 NSCLC and with HCT-116 colon was above 100 µM in each case. The TGI in the assay on NCI-H522 lung, with SK-MEL-2 melanoma, with MOLT-4 leukemia and in the assay on OVCAR-3 ovarian was above 100 µM in each case.

For `COc1ccc(S(=O)(=O)N/N=C/C(=O)O)cc1`, the TGI was 1230 µM with SW-620 colon; 1110 µM in the assay on HOP-92 NSCLC; 975 µM with SF-268 CNS; above 1250 µM with COLO 205 colon; above 1250 µM in the assay with A549 NSCLC; 1030 µM with HCT-116 colon. Moreover, the TGI with NCI-H522 lung amounted to 644 µM; in the assay with SK-MEL-2 melanoma it was 826 µM; in the assay on MOLT-4 leukemia it was 694 µM; in the assay on OVCAR-3 ovarian, 1160 µM.

On to `Clc1ccc2c(Cl)ncnc2c1`, for which the TGI in the assay on SW-620 colon, with HOP-92 NSCLC, with SF-268 CNS, with COLO 205 colon, with A549 NSCLC and in the assay on HCT-116 colon was above 100 µM in each case. The TGI in the assay with NCI-H522 lung, in the assay with SK-MEL-2 melanoma, in the assay on MOLT-4 leukemia and with OVCAR-3 ovarian was above 100 µM each time.

Take `Cc1ccc(C2=Nc3c(N)ncnc3NC(c3cccc(Nc4ccnc5cc(C(F)(F)F)ccc45)c3)C2)cc1` (stereo not given): the GI50 is 2.87 µM with SW-620 colon; 2.54 µM in the assay on HOP-92 NSCLC; 4.47 µM in the assay with SF-268 CNS; 2.64 µM in the assay on COLO 205 colon; 3.63 µM in the assay on A549 NSCLC; 2.86 µM with HCT-116 colon. Also, the GI50 in the assay with NCI-H522 lung was 2.27 µM; in the assay on SK-MEL-2 melanoma it was 2.15 µM; in the assay with MOLT-4 leukemia, 3.4 µM; in the assay on OVCAR-3 ovarian it was 3.47 µM. Also, the TGI amounted to 11.3 µM with SW-620 colon; 9.75 µM in the assay on HOP-92 NSCLC; 47.1 µM in the assay with SF-268 CNS; 7.03 µM in the assay on COLO 205 colon; 13.2 µM with A549 NSCLC; 10.5 µM in the assay on HCT-116 colon. The TGI in the assay with NCI-H522 lung is 7.51 µM; with SK-MEL-2 melanoma it was 5.15 µM; in the assay on MOLT-4 leukemia it was above 100 µM; in the assay on OVCAR-3 ovarian it was 15.1 µM.

With `O=c1oc(-c2ccc(O)c(O)c2)cc2cc(O)cc(O)c12`, the GI50 is 35.2 µM in the assay with SW-620 colon; 25.5 µM in the assay with HOP-92 NSCLC; 32.4 µM with SF-268 CNS; 41.8 µM with COLO 205 colon; 34.1 µM in the assay with A549 NSCLC; 29.8 µM in the assay on HCT-116 colon. Also, the GI50 is 27.3 µM with NCI-H522 lung, 74.4 µM with SK-MEL-2 melanoma, 22.4 µM in the assay with MOLT-4 leukemia and 35.3 µM with OVCAR-3 ovarian. For the same compound, the TGI in the assay on SW-620 colon, in the assay on HOP-92 NSCLC, in the assay with SF-268 CNS, in the assay with COLO 205 colon, in the assay on A549 NSCLC and in the assay on HCT-116 colon was above 100 µM throughout. Moreover, the TGI with NCI-H522 lung, in the assay on SK-MEL-2 melanoma, in the assay on MOLT-4 leukemia and with OVCAR-3 ovarian was above 100 µM in each case.

As for `O=C1OC(c2ccc(O)cc2)(c2ccc(O)cc2)c2cccc3cccc1c23`, the GI50 in the assay on SW-620 colon is 15.5 µM; with HOP-92 NSCLC, 12.2 µM; with SF-268 CNS, 14.2 µM; with COLO 205 colon, 0.737 µM; in the assay with A549 NSCLC, 14.4 µM; in the assay with HCT-116 colon it was 15.6 µM. In addition, the GI50 with NCI-H522 lung was 14 µM; in the assay with SK-MEL-2 melanoma, 15.6 µM; with MOLT-4 leukemia, 11.7 µM; with OVCAR-3 ovarian, 3.53 µM. The TGI with SW-620 colon stood at 33.3 µM; in the assay with HOP-92 NSCLC, 26.8 µM; in the assay with SF-268 CNS, 32.2 µM; with COLO 205 colon, 18.4 µM; in the assay with A549 NSCLC it was 36.2 µM; in the assay with HCT-116 colon it was 31.5 µM. The TGI came out at 33.5 µM in the assay with NCI-H522 lung, 31.2 µM with SK-MEL-2 melanoma, 33.8 µM in the assay on MOLT-4 leukemia and 19.9 µM in the assay with OVCAR-3 ovarian.

`CC(CS(=O)(=O)Cc1ccccc1)C(N)=O` (stereo not given): the TGI in the assay on SW-620 colon, in the assay on HOP-92 NSCLC, with SF-268 CNS, in the assay with COLO 205 colon, in the assay with A549 NSCLC and in the assay on HCT-116 colon was above 100 µM each time. The TGI in the assay with NCI-H522 lung, in the assay on SK-MEL-2 melanoma, in the assay with MOLT-4 leukemia and in the assay with OVCAR-3 ovarian was above 100 µM each time.

With `COc1cc(C2C3=C(COC3=O)N(CCO)c3cc4c(cc32)CCC4)cc(OC)c1O` (stereo not given), the GI50 in the assay with SW-620 colon was 0.121 µM; in the assay with HOP-92 NSCLC, above 32.5 µM; in the assay on SF-268 CNS, 0.182 µM; in the assay with COLO 205 colon, 0.229 µM; with A549 NSCLC, 0.499 µM; in the assay with HCT-116 colon, 0.138 µM. Further, the GI50 with NCI-H522 lung was 0.0432 µM; in the assay with SK-MEL-2 melanoma it was 0.0795 µM; with MOLT-4 leukemia it was 0.52 µM; in the assay with OVCAR-3 ovarian, 0.0703 µM. The TGI is above 32.5 µM with SW-620 colon; above 32.5 µM in the assay on HOP-92 NSCLC; above 32.5 µM in the assay on SF-268 CNS; 2.16 µM in the assay with COLO 205 colon; above 32.5 µM with A549 NSCLC; above 12.5 µM in the assay with HCT-116 colon. The TGI in the assay on NCI-H522 lung is 0.122 µM; in the assay on SK-MEL-2 melanoma it was 0.262 µM; in the assay on MOLT-4 leukemia it was above 32.5 µM; with OVCAR-3 ovarian, 0.184 µM.

Turning to `O=C1c2cccnc2C(=O)c2c1c(C(=O)OCCCN1CCOCC1)c1ccccn21`, the GI50 with SW-620 colon was below 0.01 µM; in the assay on HOP-92 NSCLC, 0.151 µM; in the assay with SF-268 CNS, below 0.01 µM; in the assay on COLO 205 colon, 0.0553 µM; in the assay on A549 NSCLC it was below 0.01 µM; in the assay with HCT-116 colon, below 0.01 µM. For the same compound, the GI50 with NCI-H522 lung is below 0.01 µM; in the assay on SK-MEL-2 melanoma, 0.0205 µM; in the assay with MOLT-4 leukemia it was 0.135 µM; with OVCAR-3 ovarian it was 0.0201 µM. Also, the TGI with SW-620 colon was determined as 1.75 µM; in the assay on HOP-92 NSCLC, 0.929 µM; in the assay on SF-268 CNS, 10.7 µM; with COLO 205 colon, 0.308 µM; with A549 NSCLC it was 0.072 µM; in the assay with HCT-116 colon it was 0.184 µM. Further, the TGI in the assay with NCI-H522 lung is below 0.0127 µM; in the assay with SK-MEL-2 melanoma, 0.0569 µM; in the assay with MOLT-4 leukemia, 12.5 µM; in the assay with OVCAR-3 ovarian, 0.528 µM.

For `CC1OC(=O)N(CCCC=C2SCCCS2)C1=O` (stereo not given), the TGI in the assay on SW-620 colon, with HOP-92 NSCLC, with SF-268 CNS, in the assay with COLO 205 colon, in the assay on A549 NSCLC and in the assay with HCT-116 colon was above 100 µM throughout. In addition, the TGI with NCI-H522 lung, in the assay on SK-MEL-2 melanoma, in the assay with MOLT-4 leukemia and in the assay with OVCAR-3 ovarian was above 100 µM in each case.

Turning to `CC1(CC(=O)O)OC2CCCCCC2O1` (stereo not given) (tested in a mixture with another compound), the TGI in the assay with SW-620 colon, in the assay on HOP-92 NSCLC, in the assay with SF-268 CNS, in the assay with COLO 205 colon, in the assay on A549 NSCLC and in the assay with HCT-116 colon was above 100 µM throughout. The TGI in the assay on NCI-H522 lung, in the assay on SK-MEL-2 melanoma, in the assay on MOLT-4 leukemia and in the assay on OVCAR-3 ovarian was above 100 µM in each case.

As to `O=c1[nH]c(=O)n(C2CC(O)C(CO)O2)cc1C#Cc1ccc(C(F)(F)F)cc1` (stereo not given), the TGI with SW-620 colon, in the assay with HOP-92 NSCLC, in the assay with SF-268 CNS, with COLO 205 colon, with A549 NSCLC and in the assay on HCT-116 colon was above 100 µM throughout. Also, the TGI in the assay on NCI-H522 lung, in the assay with SK-MEL-2 melanoma, in the assay with MOLT-4 leukemia and with OVCAR-3 ovarian was above 100 µM each time.

For the compound `COC(=O)c1cc(Nc2ccc(O)c3c2C(=O)c2c([N+](=O)[O-])ccc(O)c2C3=O)cc(C(=O)OC)c1`, the GI50 with SW-620 colon was 3.3 µM; in the assay on HOP-92 NSCLC it was 22 µM; in the assay with SF-268 CNS, 7.97 µM; in the assay with COLO 205 colon, 2.38 µM; in the assay with A549 NSCLC, 1.74 µM; in the assay on HCT-116 colon, 4.17 µM. The GI50 with NCI-H522 lung was 4.07 µM; in the assay with SK-MEL-2 melanoma it was 4.05 µM; in the assay with MOLT-4 leukemia, 6.37 µM; in the assay with OVCAR-3 ovarian, 3.42 µM. The TGI in the assay on SW-620 colon is above 100 µM; with HOP-92 NSCLC it was above 100 µM; in the assay on SF-268 CNS, above 100 µM; in the assay on COLO 205 colon, 5.56 µM; in the assay with A549 NSCLC it was 4.05 µM; with HCT-116 colon it was above 100 µM. In addition, the TGI was 28.3 µM in the assay on NCI-H522 lung, above 100 µM with SK-MEL-2 melanoma, above 100 µM with MOLT-4 leukemia and 21.3 µM in the assay with OVCAR-3 ovarian.

(Values after PubChem BioAssay (NCI).)
